The test addresses T1, TPMTwt (Homo sapiens, UniProt P51580).
T1 construct: gene TPMT; recombinant, pET-28a, E. coli BL21(DE3) CodonPlus, His-tag cleaved off with thrombin, Ni-NTA and gel filtration
T1 sequence (P51580 1-245): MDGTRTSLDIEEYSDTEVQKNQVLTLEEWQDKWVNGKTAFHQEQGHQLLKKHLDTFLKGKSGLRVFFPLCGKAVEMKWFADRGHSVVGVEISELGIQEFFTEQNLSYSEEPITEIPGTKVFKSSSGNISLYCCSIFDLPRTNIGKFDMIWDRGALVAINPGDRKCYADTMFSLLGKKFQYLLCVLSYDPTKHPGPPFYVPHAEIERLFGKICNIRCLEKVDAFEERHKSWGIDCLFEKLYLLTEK
In words: isothermal titration calorimetry. It is filed as binding.

Molecules are shown by their SMILES.

Broadly, the Kd is a measure of binding affinity in units of concentration. `C[S+](CC[C@H](N)C(=O)O)C[C@H]1O[C@@H](n2cnc3c(N)ncnc32)[C@H](O)[C@@H]1O` (stereo partly shown) [SAM]: the equilibrium dissociation constant (Kd) is 2700 nM.

These data come from PMC5411961, “One amino acid makes a difference–Characterization of a new TPMT allele and the influence of SAM on TPMT stability” (Scientific Reports, 2017).
